Results published in patent US4511560A, “Antibiotic substances DC-45, and their use as medicaments” (Kyowa Hakko Kogyo Kabushiki Kaisha, priority 1979, dated 1985).

Columns and labels:
Sarcoma 180 solid tumour = assay: Therapeutic effect on Sarcoma 180 solid tumour; assay type: in vivo, mice (male; ddy-strain); settings: 5.6 mg/kg, abdominally, single, day 7
Method: Mice (male; ddy-strain; weight about 20 g; each group consisting of 6 mice) were used as test animals. Sarcoma 180 tumour cells (each 5×10^6cells) were subcutaneously implanted into each mouse at the armpit. 24 hours after this, a phosphate buffered physiological solution of sodium chloride (each 0.2 ml) was intraperitoneally administered to each mouse, a given amount of one of the substances DC-45-A, DC-45-B1 and DC-45-B2 being contained in each solution so that a different substance is administered to each group of mice. The said phosphate buffer contained NaCl (0.8 g/dl), KCl (0.02 g/dl), […] (1.15 g/dl) and KH2 PO4 (0.02 g/dl). For comparison purpose, a similar phosphate buffered solution containing mitomycin C (0.2 ml) was abdominally administered to the mice of another group 24 hours after the implantation of the tumour cells. Table 3 indicates the volume of the tumour (mean value in mm^3) and T/C (mean value; the tumour volume of the animal treated with the test compound/the tumour volume of the control animal treated with 0.2 ml of the phosphate buffered solution of sodium chloride, both being determined 7 days after the implantation.

[1] = test system: Lymphocytic leukaemia P-388 tumour; assay: Anti-tumour activity on Lymphocytic leukaemia P-388 tumour; assay type: in vivo, mice (male; CDF1 strain); settings: 5.6 mg/kg, abdominally
Method: Mice (male; CDF1 strain; weight about 22 g; each group consisting of 5 mice) were used as the test animals. Lymphocytic leukaemia P-388 tumour cells (each 1×10^6 cells) were intraperitoneally implanted into each mouse. 24 hours after this, a phosphate buffered physiological solution of sodium chloride (each 0.2 ml) was intraperitioneally injected once into each mouse, a given amount of one substance being contained in each solution so that a different substance is administered to each group of mice. For comparison, a similar phosphate buffered solution of sodium chloride containing mitomycin C was admnistered abdominally to each mouse of a further control group. Table 4 indicates the average survival time in days and T/C (mean value of the survival days of the animals treated with the test compound/mean value of the survival days of the control animals treated with 0.2 ml of the phosphate buffered solution of sodium chloride).

## CO[C@@]12[C@H](COC(N)=O)C3=C(C(=O)C(C)=C(N)C3=O)N1C[C@@H]1N[C@@H]12 [Mitomycin C, mitomycin C]
Sarcoma 180 solid tumour
  T/C (tumour volume): 0.20
  Volume of tumour (mean value): 282 mm^3
[1]
  Survival days: 18.0 ± 1.4 days
  T/C (survival days): 1.88
